Converted amounts (≈) assume the structure as drawn. Where two headings read alike, the source gives them in different places.
Legend:
Format in all cases: cell-based
[1] = system: Escherichia coli B Cef. R (β-lact.+); experiment: Antibacterial in vitro activity (MIC), Escherichia coli B Cef. R (β-lact.+)
Description: (§1) Comparison between the antibacterial in vitro
(§2) activity (MIC, μg/ml) of compounds (1)
(§3) and (31) and a reference drug: Moxalactam

[2] = system: Streptococcus pyrogenes ATCC 12384; experiment: Antibacterial in vitro activity (MIC), Streptococcus pyrogenes ATCC 12384; conditions: ATCC12384
Description: as §1, §2, §3

[3] = system: Staphylococcus aureus 209 P; experiment: Antibacterial in vitro activity (MIC), Staphylococcus aureus 209 P
Description: as §1, §2, §3

[4] = system: Staphylococcus aureus Smith ATCC 13709; experiment: Antibacterial in vitro activity (MIC), Staphylococcus aureus Smith ATCC 13709; conditions: ATCC13709
Description: as §1, §2, §3

[5] = system: Acinobacter; experiment: Antibacterial in vitro activity (MIC), Acinobacter
Description: as §1, §2, §3

[6] = system: Shigella flexneri ATCC 11836; experiment: Antibacterial in vitro activity (MIC), Shigella flexneri ATCC 11836; conditions: ATCC11836
Description: as §1, §2, §3

[7] = system: Klebsiella aerogenes 1082E (β-lact.+); experiment: Antibacterial in vitro activity (MIC), Klebsiella aerogenes 1082E (β-lact.+)
Description: as §1, §2, §3

[8] = system: Pseudomonas aeruginosa (6 strains); experiment: Antibacterial in vitro activity (MIC), Pseudomonas aeruginosa (6 strains)
Description: as §1, §2, §3

[9] = system: Citrobacter freundii ATCC 8090; experiment: Antibacterial in vitro activity (MIC), Citrobacter freundii ATCC 8090; conditions: ATCC8090
Description: as §1, §2, §3

[10] = system: Enterobacter cloacae P 99 (β-lact.+); experiment: Antibacterial in vitro activity (MIC), Enterobacter cloacae P 99 (β-lact.+)
Description: as §1, §2, §3

[11] = system: Escherichia coli 026/B6 Cef R; experiment: Antibacterial in vitro activity (MIC), Escherichia coli 026/B6 Cef R; conditions: 026/B6CEFR
Description: as §1, §2, §3

[12] = Escherichia coli B Cef. R (β-lact.+), read-out: MIC
[13] = Klebsiella aerogenes 1082E (β-lact.+), read-out: MIC
[14] = Enterobacter cloacae P 99 (β-lact.+), read-out: MIC

SMILES | MIC [1, 12] [µg/mL] | MIC [2] [µg/mL] | MIC [3] [µg/mL] | MIC [4] [µg/mL] | MIC [5] [µg/mL] | MIC [6] [µg/mL] | MIC [7, 13] [µg/mL] | MIC [8] [µg/mL] | MIC ([9]; Citrobacter freundii ATCC 8090, read-out: MIC) [µg/mL] | MIC [10, 14] [µg/mL] | MIC [11] [µg/mL] | MIC ([1]; Escherichia coli) [µg/mL] | MIC ([7]; Klebsiella aerogenes) [µg/mL] | MIC ([9]; Citrobacter freundii) [µg/mL] | MIC ([10]; Enterobacter cloacae) [µg/mL]
C[C@@H](O)[C@H]1C(=O)N2C(C(=O)[O-])=C(SCC[n+]3ccccc3)S[C@H]12 [Compound 1, (5R,6S)-6-[(1R)-hydroxyethyl]-2-(2-pyridinioethylthio) penem-3-carboxylate] | 0.78 (≈ 2.21 µM) | ≤ 0.005 | 0.011 (≈ 0.0312 µM) | 0.222 (≈ 0.63 µM) | 0.78 (≈ 2.21 µM) | 0.39 (≈ 1.11 µM) | 0.78 (≈ 2.21 µM) | 9.92 (≈ 28.1 µM) | 0.78 (≈ 2.21 µM) | 0.78 (≈ 2.21 µM) | 0.39 (≈ 1.11 µM) |  |  |  | 
C[C@@H](O)[C@H]1C(=O)N2C(C(=O)[O-])=C(Oc3ccc(C[n+]4ccccc4)cc3)S[C@H]12 [Compound 31] |  | 0.011 (≈ 0.0276 µM) | 0.022 (≈ 0.0552 µM) | 0.045 (≈ 0.113 µM) |  | 1.56 (≈ 3.92 µM) |  |  |  |  | 0.78 (≈ 1.96 µM) | 1.56 (≈ 3.92 µM) | 1.56 (≈ 3.92 µM) | 1.56 (≈ 3.92 µM) | 1.56 (≈ 3.92 µM)
CO[C@@]1(NC(=O)C(C(=O)O)c2ccc(O)cc2)C(=O)N2C(C(=O)O)=C(CSc3nnnn3C)CO[C@@H]21 (stereo partly shown) [Moxalactam, reference compound] | 2.5 (≈ 4.8 µM) | 2.5 (≈ 4.8 µM) | 0.31 (≈ 0.596 µM) | 0.31 (≈ 0.596 µM) |  | 0.15 (≈ 0.288 µM) | 0.78 (≈ 1.5 µM) |  |  | 3.12 (≈ 5.99 µM) | 2.5 (≈ 4.8 µM) |  |  |  | 

— US4837215A, “Penem derivatives” (Farmitalia Carlo Erba, priority 1985, dated 1989)
